From patent US11298334B2, “Use of isothiocyanate compounds” (JC (WUXI) COMPANY, INC., priority 2016, dated 2022)

Experiments:
[1] = tested on: volunteers with only hyperbilirubinemia; assay: Auxiliary detection on total bilirubin, 6 weeks; format: in vivo, human; settings: 10, 20 or 30 mg 3 times a day oral
Procedure: The method was the same as described in Example 3, except that 8 volunteers with only hyperbilirubinemia were recruited in the medical research peers. Using the same manner as described in Example 3, the subjects were randomly assigned into any one of the following four groups at a ratio of 1:1:1:1: administration group (Group A): phenylethyl isothiocyanate 10 mg/time, 3 times a day; administration group (Group D): phenylethyl isothiocyanate 20 mg/time, 3 times a day; administration group (Group B): phenylethyl isothiocyanate 30 mg/time, 3 times a day; placebo group (C group): phenylethyl isothiocyanate placebo 1 capsule/time, 3 times a day. Oral administration was continued for 6 weeks.

[2] = tested on: patients with benign prostatic hyperplasia; assay: Multicenter randomized double-blind placebo-controlled trial, 24 weeks: serum triglyceride, lipoprotein cholesterol, total bilirubin; format: in vivo, human; settings: for serum high-density lipoprotein, average change value compared with baseline / serum high-density lipoprotein, percentage of average change compared with baseline: Centers No. 11, 13 and 14
Procedure: A multicenter, randomized, double-blind, placebo parallel control design was used to preliminarily evaluate the safety and efficacy of phenylethyl isothiocyanate capsules on the treatment of BPH patients. Subjects meeting the entry criteria were randomly assigned to any of the following four groups at a ratio of 1:1:1:1: administration group (Group A): phenylethyl isothiocyanate 10 mg/time, 3 times a day; administration group (group D): phenylethyl isothiocyanate 20 mg/time, 3 times a day; administration group (group B): phenylethyl isothiocyanate 30 mg/time, 3 times a day; placebo group (group C): phenylethyl isothiocyanate placebo 1 capsule/time, 3 times a day. Oral administration was continued for 24 weeks. Men between the ages of 50 and 75, healthy, with moderate benign prostatic hyperplasia, no signs of prostate cancer. A total of 240 men participated in the six-month trial. Effectiveness: 1. benign prostatic hyperplasia: IPSS, QOL, prostate volume, the maximal urinary flow rate, residual urine; 2. triglycerides; 3. lipoprotein cholesterol; 4. total bilirubin. Safety: occurrence, process, and solution of all adverse events during treatment. Among the 14 centers in the clinical trial, the serum triglyceride levels and high-density lipoprotein and low-density lipoprotein levels in serum of the subjects were all detected in the center No. 11, center No. 13, and center No. 14.

[3] = tested on: SD rats; assay: Hypolipidemic activity in rats: serum triglyceride after 6 months oral gavage; format: in vivo, rat; settings: for TG (serum triglyceride level): at terminal of administration, x ± SD, n = 14
Procedure: Reagent: phenylethyl isothiocyanate, synthesized by Wuxi Jiexi Pharmaceutical Technology Co., Ltd. The chemical construction was determined by NMR, UV, IR, MS, etc., and its content and purity were determined by HPLC (>99%); Fulinmen Brand corn oil, manufactured by Dongliang Industry (Zhangjiagang) Co., Ltd.
Animals: Clean SD rats, half male and half female, weighed 80-100 g, were provided by Shanghai Slac Laboratory Animal Co., Ltd. Free access to drinking water, ambient temperature of 20-25° C., relative humidity of 40%-70%.
Experimental methods: Male rats with 123-149 g of body weight were randomly divided into 4 groups according to their body weights. Female rats with 116-142 g of body weight were randomly divided into 4 groups according to body weights. In the control group and high dose group, there were 60 in each group. In the medium-dose and low-dose groups, there were 40 in each group, half male and half female. 0, 20, 60, 120 mg/kg of phenethyl isothiocyanate was administered by oral gavage, wherein the test drug was diluted with corn oil. The rats were administered continuously for 6 months, and administered 6 days a week, and administered at the same time every morning.
Observation items: blood biochemical examination.

[4] = tested on: volunteers with only hyperlipidemia; assay: Auxiliary detection on blood lipids, 6 weeks; format: in vivo, human; settings: 10, 20 or 30 mg 3 times a day oral
Procedure: Using the same method as described in Example 3 except that 8 volunteers with only hyperlipidemia were recruited and using the same method as described in Example 3. The volunteers were randomly assigned into the following four groups at a ratio of 1:1:1:1: administration group (Group A): phenylethyl isothiocyanate 10 mg/time, 3 times a day; administration group (Group D): phenylethyl isothiocyanate 20 mg/time, 3 times a day; administration group (Group B): phenylethyl isothiocyanate 30 mg/time, 3 times a day; placebo group (Group C): phenylethyl isothiocyanate placebo 1 capsule/time, 3 times a day. Oral administration was continued for 6 weeks.

[5] = tested on: volunteers with benign prostatic hyperplasia accompanied by elevated bilirubin; assay: Auxiliary detection on total bilirubin and blood lipid, 24 weeks; format: in vivo, human; settings: 10, 20 or 30 mg 3 times a day oral
Procedure: Using the same method as described in Example 2, 24 volunteers with benign prostatic hyperplasia accompanied by elevated bilirubin were recruited. Using the same manner as described in Example 2, subjects meeting the entry criteria were randomly assigned into any of the following four groups at a ratio of 1:1:1:1: administration group (Group A): phenylethyl isothiocyanate 10 mg/time, 3 times a day; administration group (Group D): Phenylethyl isothiocyanate 20 mg/time, 3 times a day; administration group (Group B): phenylethyl isothiocyanate 30 mg/time, 3 times a day; placebo group (C group): phenylethyl isothiocyanate placebo 1 capsule/time, 3 times a day. Oral administration was continued for 24 weeks. The effectiveness and safety of the experiment were evaluated. Effectiveness: 1. benign prostatic hyperplasia: IPSS, QOL, prostate volume, maximal urinary flow rate, residual urine; 2. triglycerides; 3. lipoprotein cholesterol; 4. total bilirubin. Safety: occurrence, process, and solution of all adverse events during treatment.

## S=C=NCCc1ccccc1 [phenylethyl isothiocyanate]
[1]
  total bilirubin level, decrease: 10-25%
[2]; Group A, 30 mg (10 mg 3 times a day) oral, 24 weeks
  triglyceride, percentage of average change compared with baseline: −6.54%
[2]; Group A, 30 mg, 4 weeks
  total bilirubin, percentage of average change compared with the baseline: 2.23%
[2]; Group A, 30 mg, 8 weeks
  total bilirubin, percentage of average change compared with the baseline: −3.15%
[2]; Group A, 30 mg, 16 weeks
  total bilirubin, percentage of average change compared with the baseline: −4.46%
[2]; Group A, 30 mg, 24 weeks
  low-density lipoprotein, average change value compared with baseline: 0.0062
  low-density lipoprotein, percentage of average change compared with baseline: −0.88%
  total bilirubin levels, average decrease compared with the baseline: 8.91%
  total bilirubin, percentage of average change compared with the baseline: −8.91%
  triglyceride levels, average decrease compared with baseline: 6.54%
  serum high-density lipoprotein, average change value compared with baseline: 0.0063
  serum high-density lipoprotein, percentage of average change compared with baseline: 1.45%
[2]; Group B, 90 mg (30 mg 3 times a day) oral, 24 weeks
  triglyceride, percentage of average change compared with baseline: −8.59%
[2]; Group B, 90 mg, 4 weeks
  total bilirubin, percentage of average change compared with the baseline: 2.18%
[2]; Group B, 90 mg, 8 weeks
  total bilirubin, percentage of average change compared with the baseline: −0.45%
[2]; Group B, 90 mg, 16 weeks
  total bilirubin, percentage of average change compared with the baseline: −8.28%
[2]; Group B, 90 mg, 24 weeks
  low-density lipoprotein, average change value compared with baseline: 0.1925
  low-density lipoprotein, percentage of average change compared with baseline: 6.92%
  total bilirubin levels, average decrease compared with the baseline: 6.10%
  total bilirubin, percentage of average change compared with the baseline: −6.10%
  triglyceride levels, average decrease compared with baseline: 8.59%
  serum high-density lipoprotein, average change value compared with baseline: 0.0938
  serum high-density lipoprotein, percentage of average change compared with baseline: 7.77%
[2]; Group D, 60 mg (20 mg 3 times a day) oral, 24 weeks
  triglyceride, percentage of average change compared with baseline: −8.58%
[2]; Group D, 60 mg, 4 weeks
  total bilirubin, percentage of average change compared with the baseline: 5.21%
[2]; Group D, 60 mg, 8 weeks
  total bilirubin, percentage of average change compared with the baseline: 3.34%
[2]; Group D, 60 mg, 16 weeks
  total bilirubin, percentage of average change compared with the baseline: −1.82%
[2]; Group D, 60 mg, 24 weeks
  low-density lipoprotein, average change value compared with baseline: −0.0425
  low-density lipoprotein, percentage of average change compared with baseline: 0.05%
  total bilirubin levels, average decrease compared with the baseline: 8.55%
  total bilirubin, percentage of average change compared with the baseline: −8.55%
  triglyceride levels, average decrease compared with baseline: 8.58%
  serum high-density lipoprotein, average change value compared with baseline: 0.1013
  serum high-density lipoprotein, percentage of average change compared with baseline: 9.15%
[3]; female rats, 20 mg/kg
  decrease of triglycerides in serum compared with the 0 mg/kg group: 25.5%
[3]; female rats, 20 mg/kg oral gavage
  TG (serum triglyceride level): 2.13 ± 0.82 mmol/L
[3]; female rats, 60 mg/kg
  decrease of triglycerides in serum compared with the 0 mg/kg group: 41.2%
[3]; female rats, 60 mg/kg oral gavage
  TG (serum triglyceride level): 1.68 ± 0.63 mmol/L
[3]; female rats, 120 mg/kg
  decrease of triglycerides in serum compared with the 0 mg/kg group: 52.8%
[3]; female rats, 120 mg/kg oral gavage
  TG (serum triglyceride level): 1.35 ± 0.72 mmol/L
[3]; male rats, 20 mg/kg
  decrease of triglycerides in serum compared with the 0 mg/kg group: 24.1%
[3]; male rats, 20 mg/kg oral gavage
  TG (serum triglyceride level): 1.73 ± 0.79 mmol/L
[3]; male rats, 60 mg/kg
  decrease of triglycerides in serum compared with the 0 mg/kg group: 44.3%
[3]; male rats, 60 mg/kg oral gavage
  TG (serum triglyceride level): 1.27 ± 0.38 mmol/L
[3]; male rats, 120 mg/kg
  decrease of triglycerides in serum compared with the 0 mg/kg group: 56.1%
[3]; male rats, 120 mg/kg oral gavage
  TG (serum triglyceride level): 1.00 ± 0.22 mmol/L
[4]
  high-density lipoprotein level, increase: 10-20%
  low density lipoprotein level, decrease: 10-25%
  triglyceride level, decrease: 10-25%
[5]
  high-density lipoprotein level, increase: 10-20%
  low density lipoprotein level, decrease: 15-25%
  total bilirubin level, decrease: 15-25%
  triglyceride level, decrease: 15-25%
